This is an account of results in patent US9150510B2, “Amino acid derivative” (NIPPON ZOKI PHARMACEUTICAL CO., LTD., priority 2008, dated 2015).

Structures can show the parent of a compound that is named as a salt.

The subject of data set [1] is ddY-type mice. Description: Analgesic efficacy test (1): acetic acid writhing test (nociceptive pain model animal). Conditions: Mus musculus, 25 min, writhing number, male ddY mice, acetic acid i.p. 25 min after administration, mean ± standard error, read-out: Percent Suppression (%). It counts as in vivo. The procedure, abridged: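 Male 4-week-old ddY mice (8/group) received a single oral dose in 0.5% CMC-Na; 25 min later, 0.7% acetic acid given i.p. at 10 mL/kg. Writhes counted over 10 min starting 5 min after injection; suppression rate per animal versus vehicle, Dunnett's test, P<0.05.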
On the technique in general: Writhing tests count abdominal constrictions after an irritant is injected.

Data set [2] is described as follows: Test of blood kinetics in the rats. The class given is in vivo. The following applies: rat, plasma, 2 mg/kg, fasted Wistar male rats, oral single dose of mixed solution of five compounds, each compound 2 mg/5 mL/kg, n=5, LC-MS; for AUC(0-inf): read-out: AUC0-∞ (area under the curve for concentration in blood, time 0 to infinite hours); for Cmax: read-out: Cmax (maximum concentration in plasma). The procedure: Ten milligrams of a compound of the present invention was properly converted to a sodium salt with the same amount of sodium hydroxide, where necessary, and each was dissolved in 5 mL of water. Five compounds each among these aqueous solutions of the compounds of the present inventions were mixed, to prepare a mixed solution containing 0.4 mg/mL each of each compound. Six-week old Wistar SPF male rats that were fasted were orally administered with the mixed solution in a single dose using a gavage tube (each compound 2 mg/5 mL/kg, n=5). At time points of 0.25, 0.5, 1, 2, 4, and 8 hours after the administration, about 150 μL of blood was collected using a heparin-added capillary tube from veins of rat tails. The capillary tubes were centrifuged to collect the plasma. The plasma sample was deprotenized and the supernatant was diluted to prepare each of measurement sample solutions. The concentration of the compound of the present invention in each of measurement sample solutions was quantified using LC-MS, and Cmax (maximum concentration in plasma) and AUC (area under the curve for concentration in blood, time 0 to infinite (∞) hours) of the compounds of the present invention were calculated.

Data set [3] concerns Chung model rat. Description: Analgesic efficacy test (2): Chung model rat, neuropathic pain model (allodynia, von Frey filament). The class given is in vivo. Conditions: Table 13; oral single dose 10 mg/kg; Wistar male rats, L5 spinal nerve ligation; mean ± standard error. As for the experimental part: An analgesic efficacy test was conducted using a Chung model rat, a neuropathic pain model. Using Wistar male rats after passing 9-week old as an experimental animal, a model rat was prepared in accordance with the method of Kim and Chung (Pain, 50, 355-363, 1992). Specifically, left L5 spinal nerves of rats were exposed under anesthetization with pentobarbital (35 mg/kg, intraperitoneal administration), and firmly ligated with 5-0 silk yarn at L5 dorsal root ganglion peripheral side. The animals were placed in a transparent acrylic cage of which bottom was wire netted The measurement of allodynia was carried out using von Frey filament (manufactured by North Coast Medical Inc.) and a 50% reaction threshold was calculated according to an up-down method, in accordance with methods of Chaplan et al. (J. Neurosci. Method, 53, 55-63, 1994) and Lee et al. (J. Neurophysiol., 81, 2226-2233, 1999). The 50% reaction thresholds were measured twice before injury of the spinal nerve, and those animals of which thresholds were outside the standard were removed from the operation of spinal nerve injury. On or after 14 days from the spinal nerve injury, a 50% reaction threshold was measured, and those showing thresholds of 1 g or more and less than 4 g were used as experimental animal. The group was constituted by 7 rats per group so that an average of a 50% reaction threshold for each group would be nearly even.
A solution or suspension prepared by dissolving or suspending a compound of the present invention in a 0.5% (w/v) aqueous CMC-Na solution was orally administered as a test substance in a single dose while, a 0.5% (w/v) aqueous CMC-Na solution was administered in the same manner to the control group for nerve injury. After 30 minutes from the administration, the measurement of allodynia was carried out, and a 50% reaction threshold (mean±standard error) was calculated. In the test for significance difference, Baltlett's test was carried out in the comparison between multiple groups of the group administered with test substance with the control group for nerve injury. In the case of homoscedasticity, Dunnett's multiple comparison test of parametrics, and in the case of heteroscedasticity, Dunnett's multiple comparison test of non-parametrics were used. In all cases, significance difference was considered to be found at P<0.05.

A word on the melting point: it is the temperature of the solid-liquid transition. In turn, `C=CC(=O)N[C@@H](Cc1c[nH]c2ccccc12)C(=O)O` (as salt: sodium) [Compound 1, N^α-Acryloyl-L-tryptophan] gave a melting point of 150 to 151 °C.

Consider `O=C(C=Cc1cccc(O)c1)N[C@@H](Cc1c[nH]c2ccccc12)C(=O)O` (as salt: sodium) [Compound 6, N^α-[3-(3-Hydroxyphenyl)acryloyl]-L-tryptophan], for which the melting point lay within 163 to 164 °C. Take `O=C(C=Cc1ccccc1F)N[C@@H](Cc1c[nH]c2ccccc12)C(=O)O` [Compound 3, N^α-[3-(2-Fluorophenyl)acryloyl]-L-tryptophan]: the melting point is 104 to 105 °C. For the same molecule, the inhibition in vivo at 3 mg/kg in data set [1] (oral single dose 3 mg/kg) amounted to 36.9 ± 10.6%. Besides, in data set [2], the AUC(0-inf) amounted to 26.2 µg·h/mL and the Cmax turned out to be 5800 ng/mL. Molecule `O=C(C=Cc1ccc(F)cc1)N[C@@H](Cc1c[nH]c2ccccc12)C(=O)O` (as salt: sodium) [Compound 5, N^α-[3-(4-Fluorophenyl)acryloyl]-L-tryptophan] gave a melting point of 140 to 141 °C. As to `O=C(C=Cc1ccccc1O)N[C@@H](Cc1c[nH]c2ccccc12)C(=O)O` (as salt: sodium) [Compound 2, N^α-[3-(2-Hydroxyphenyl)acryloyl]-L-tryptophan], the melting point was in the range of 172 to 173 °C. As to `N#Cc1ccccc1C=CC(=O)N[C@@H](Cc1c[nH]c2ccccc12)C(=O)O` (as salt: sodium) [Compound 9, N^α-[3-(2-Cyanophenyl)acryloyl]-L-tryptophan], the melting point lay in the range of 124 to 125 °C. As for `Cn1cc(C[C@H](NC(=O)C=Cc2ccccc2)C(=O)O)c2ccccc21` [Compound 29, 1-Methyl-N^α-(3-phenylacryloyl)-L-tryptophan], the “50% Reaction Threshold (g), Group Administered with Test Substance, 30 Min. After Administration” value in data set [3] was found to be 6.45 ± 1.39 g. In data set [1] (oral single dose 10 mg/kg), the inhibition in vivo at 10 mg/kg was found to be 56.8 ± 6.8%. Moreover, in data set [2], the AUC(0-inf) came to 238 µg·h/mL and the Cmax worked out at 50600 ng/mL. For the molecule `O=C(C=Cc1ccc(O)cc1)N[C@@H](Cc1c[nH]c2ccccc12)C(=O)O` (as salt: sodium) [Compound 7, N^α-[3-(4-Hydroxyphenyl)acryloyl]-L-tryptophan], the melting point was in the range of 158 to 159 °C.
